Reference: PubChem BioAssay (NCI)
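Assay format: 96-well plates, 48-hour exposure. Definition used: TGI = concentration required for complete inhibition of growth.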

Experiments:
Assay in all cases: NCI anticancer screen, dose series, 48 h
[1] = tested on: SF-295 CNS
[2] = tested on: SK-MEL-5 melanoma
[3] = tested on: MALME-3M melanoma
[4] = tested on: UACC-257 melanoma
[5] = tested on: UACC-62 melanoma
[6] = tested on: EKVX NSCLC
[7] = tested on: T-47D breast
[8] = tested on: HOP-62 NSCLC
[9] = tested on: OVCAR-8 ovarian
[10] = tested on: HL-60(TB) leukemia

Row | Structure (SMILES) | TGI [1] [µM] | TGI [2] [µM] | TGI [3] [µM] | TGI [4] [µM] | TGI [5] [µM] | TGI [6] [µM] | TGI [7] [µM] | TGI [8] [µM] | TGI [9] [µM] | TGI [10] [µM]
1 | O=C(O)CC(NC(=O)Nc1ccc([N+](=O)[O-])cc1)C(=O)Nc1ccc([N+](=O)[O-])cc1 (stereo not given) | > 100 | > 100 | > 100 | > 100 | > 100 | > 100 | > 100 | > 100 | > 100 | –
2 | CC(C)OC(=O)c1ccc(NCC2=CC(=O)C=CC2=O)cc1Cl | 41.4 | > 57.6 | – | 33.9 | 30.1 | 32.5 | 7.85 | > 100 | > 51.4 | > 21.8
3 | O=C1C=Cc2c(Cl)sc(Cl)c21 | 27.1 | 8.09 | – | 4.78 | 8.64 | 16.8 | > 22.7 | 4.2 | – | –
4 | CN(C)N=Nc1ccc([N+](=O)[O-])cc1C(N)=O | > 100 | > 100 | > 100 | > 100 | > 100 | > 100 | – | > 100 | > 100 | –
5 | CCOC(=O)C(=[N+]=[N-])C(=O)C[N+]12CCN(CC1)CC2 | > 100 | > 100 | > 100 | > 100 | > 100 | – | > 100 | > 100 | > 100 | –
6 | Oc1ccc2c(c1)-c1c(c3cc(O)ccc3n1CCN1CCOCC1)CC2 | 47.2 | 30.6 | – | > 100 | 32.9 | > 100 | > 100 | 72.7 | 86.8 | 49.3
7 | COc1ccc(/C=N\N2CC(=O)N3C4C=CC(CC4)N3C2=O)cc1 (stereo not given) | > 100 | > 100 | – | > 100 | > 100 | > 100 | > 100 | > 100 | > 100 | > 100
8 | C[C@]12CC[C@H]3[C@@H](CCC4=CC(=O)C=C[C@@]43O)[C@@H]1CCC2=O | > 100 | > 100 | – | > 100 | > 100 | > 100 | > 100 | > 100 | > 100 | –
9 | CCCCC/C=C1/CC(CO)(COC(=O)CC(C(C)C)C(C)C)OC1=O (stereo not given) | 19.5 | 21.5 | 18.2 | 47.4 | 29.6 | 31.5 | 40.5 | 20.7 | 31 | –
10 | O=[N+]([O-])C(/C(Cl)=C(/Cl)N1CCOCC1)=C1\NCCO1 | > 100 | – | > 100 | > 100 | > 100 | > 100 | > 100 | > 100 | > 100 | –
11 | CC1CN=C(Nc2cccc(C(F)(F)F)c2)S1 (stereo not given) | – | – | > 100 | > 100 | > 100 | > 100 | > 100 | > 100 | – | 77
12 | C=CCOc1ccc(C2c3c([nH][nH]c3=O)CC(O)(OCC)C2C(=O)OCC)cc1OC (stereo not given) | > 100 | > 100 | > 100 | > 100 | – | > 100 | > 100 | > 100 | > 100 | > 100
13 | CCOC(=O)C1=CN=C2C(=O)N(c3ccccc3)N(C)C2(C)C1=N (stereo not given) | > 100 | > 100 | > 100 | > 100 | > 100 | > 100 | – | – | > 100 | > 100
14 | CSC1=Nc2ccccc2-c2nc(-c3ccccc3)cc(-c3ccccc3)c2C1 | 64.2 | 75.1 | – | > 100 | 60.5 | > 100 | 76.4 | > 100 | > 100 | > 100
15 | O=S(=O)(c1ccccc1)n1c(C(O)c2ccncc2)cc2ccccc21 (stereo not given) | > 100 | 35.4 | – | 38.9 | 98.9 | > 100 | > 100 | > 100 | > 100 | –
16 | O=C1COC(c2ccccc2O)=NN1CCCN1CCCC1 | > 100 | > 100 | > 100 | > 100 | > 100 | > 100 | > 100 | > 100 | > 100 | –
17 | CCSc1ncnc2c(C3OC(CO)C(O)C3O)nsc12 (stereo not given) | > 100 | > 100 | > 100 | – | – | > 100 | > 100 | > 100 | > 100 | > 100
18 | c1ccc2c(c1)c1c(n2CCOCCN2CCCCC2)CCCC1 | 29.7 | 21.1 | 26.7 | – | 28.7 | 32.8 | 35.2 | 29 | 28.4 | 8.33
19 | O=C1NN=C(c2ccc(Cl)cc2)CC1C1C(=O)N(c2ccccc2)N=C1c1ccccc1 (stereo not given) | > 100 | – | > 100 | – | 72.8 | > 100 | > 100 | > 100 | > 100 | > 100
20 | CCCSc1cc(Cl)c(C)cc1S(=O)(=O)n1ccnc1OCCCN(C)C | > 100 | > 100 | > 100 | > 100 | > 100 | > 100 | > 100 | > 100 | > 100 | –
21 | CC(=O)Nc1ccc(S(=O)(=O)Nc2nnc(S(N)(=O)=O)s2)cc1 | > 100 | – | > 100 | – | > 100 | > 100 | > 100 | – | – | > 100
22 | CN(C(=O)C12C3C4(C(=O)O)C1(C(=O)N(C)C(C)(C)C)C1C2(C(=O)O)C3(C(=O)N(C)C(C)(C)C)C14C(=O)N(C)C(C)(C)C)C(C)(C)C (stereo not given) | > 100 | > 100 | – | > 100 | > 100 | > 100 | > 100 | > 100 | > 100 | > 100
23 | C=Nc1ccc([N+](=O)[O-])cc1 | > 100 | > 100 | > 100 | > 100 | > 100 | > 100 | – | – | > 100 | > 100
24 | Cc1cc(S(=O)(=O)Nc2nc3ccsc3c(=O)n2N)c(S)cc1Cl | > 100 | > 100 | > 100 | > 100 | > 100 | > 100 | – | > 100 | > 100 | > 100
